Counter-ions that a name gives are not always drawn. Marks after values point to notes of the source that are not given here.
Key:
ddY-type mice = assay: Analgesic efficacy test (1): acetic acid writhing test; assay type: in vivo; conditions: Mus musculus, writhing number, mean ± standard error, 8 mice per group, read-out: Suppressive Rate; for inhibition in vivo at 10 mg/kg: oral single dose 10 mg/kg; for inhibition in vivo at 100 mg/kg: oral single dose 100 mg/kg
Description: A compound of the present invention was orally administered to mice, to carry out an analgesic efficacy test according to acetic acid writhing test. As an experimental animal, 4-week old male ddY-type mice were previously bred, and thereafter 8 mice per one group were used in the experiment. A solution or suspension prepared by dissolving or suspending a compound of the present invention in a 0.5% (w/v) aqueous CMC-Na solution was orally administered as a test substance in a single dose. While, to a control group, a 0.5% (w/v) aqueous CMC-Na solution was administered in the same manner After 25 minutes from administration, the mice were intraperitoneally administered with a 0.7% (v/v) acetic acid/physiological saline at the dose of 10 mL/kg. From 5 minutes thereafter, writhing number in a 10-minute period was counted, and a suppressive rate for each individual (mean±standard error) was calculated by the following formula: […]
In the test for significance difference, Bartlett's test was carried out in the comparison between multiple groups of the group administered with test substance with the control group. In the case of homoscedasticity, Dunnett's multiple comparison test of parametrics, and in the case of heteroscedasticity, Dunnett's multiple comparison test of non-parametrics were used. In addition, in the test of dose dependency, Jonckheere-Terpstra's test was used. In all cases, significance difference was considered to be found at P<0.05 (indicated as “*” in the table).

Chung model rat = assay: Analgesic efficacy test (2): Chung model rat, neuropathic pain model (allodynia, von Frey filament); assay type: in vivo, rats; conditions: mean ± standard error
Procedure: An analgesic efficacy test was conducted using a Chung model rat, a neuropathic pain model. Nine-week old Wistar male rats were previously bred as an experimental animal, and a model rat was then prepared in accordance with the method of Kim and Chung (Pain, 50, 355-363, 1992). Specifically, left L5 spinal nerves of rats were exposed under anesthetization with pentobarbital (40 mg/kg, intraperitoneal administration), and firmly ligated with 5-0 silk yarn at L5 dorsal root ganglion peripheral side. The animals were placed in a transparent acrylic cage of which bottom was wire netted The measurement of allodynia was carried out using von Frey filament (manufactured by North Coast Medical Inc.) and a 50% reaction threshold was calculated according to an up-down method, in accordance with a method of Chaplan et al. (J. Neurosci. Method, 53, 55-63, 1994). The 50% reaction thresholds were measured twice before injury of the spinal nerve, and those animals of which thresholds were outside the standard were removed from the operation of spinal nerve injury. On or after 14 days from the spinal nerve injury, a 50% reaction threshold was measured, and those showing thresholds of 1 g or more and less than 4 g were used as experimental animal. The group was constituted by 7 or 8 rats per group so that an average of a 50% reaction threshold for each group would be nearly even.
A solution or suspension prepared by dissolving or suspending a compound of the present invention in a 0.5% (w/v) aqueous CMC-Na solution was orally administered as a test substance in a single dose. Also, a 0.5% (w/v) aqueous CMC-Na solution was administered in the same manner to the control group for nerve injury. The measurements of allodynia were carried out with the passage of time after administration, and a 50% reaction threshold (mean±standard error) of each group at action peak was calculated. In the test for significance difference, Bartlett's test was carried out in the comparison between multiple groups of the group administered with test substance with the control group for nerve injury. In the case of homoscedasticity, Dunnett's multiple comparison test of parametrics, and in the case of heteroscedasticity, Dunnett's multiple comparison test of non-parametrics were used. In all cases, significance difference was considered to be found at P<0.05 (indicated as “*” in the tables).

[1] = oral 1 mg/kg, measurement point 90 minute (action peak)
[2] = oral 10 mg/kg, measurement point 90 minute (action peak)
[3] = oral 1 mg/kg, measurement point 60 minute (action peak)
[4] = oral 10 mg/kg, measurement point 60 minute (action peak)
[5] = oral 1 mg/kg, measurement point 30 minute (action peak)
[6] = oral 10 mg/kg, measurement point 30 minute (action peak)

| Compound | melting point | inhibition in vivo at 10 mg/kg (ddY-type mice) | inhibition in vivo at 100 mg/kg (ddY-type mice) | 50% Reaction Threshold, Group Administered with Test Substance, After Administration (Chung model rat; [1]) | 50% Reaction Threshold, Group Administered with Test Substance, After Administration (Chung model rat; [2]) | 50% Reaction Threshold, Group Administered with Test Substance, After Administration (Chung model rat; [3]) | 50% Reaction Threshold, Group Administered with Test Substance, After Administration (Chung model rat; [4]) | 50% Reaction Threshold, Group Administered with Test Substance, After Administration (Chung model rat; oral 0.1 mg/kg, measurement point 90 minute (action peak)) | 50% Reaction Threshold, Group Administered with Test Substance, After Administration (Chung model rat; oral 0.3 mg/kg, measurement point 90 minute (action peak)) | 50% Reaction Threshold, Group Administered with Test Substance, After Administration (Chung model rat; [5]) | 50% Reaction Threshold, Group Administered with Test Substance, After Administration (Chung model rat; [6]) |
| --- | --- | --- | --- | --- | --- | --- | --- | --- | --- | --- | --- |
| CN1CCN(CCCNC(=O)/C=C/c2ccccc2F)CC1 [Compound 15, (E)-3-(2-Fluorophenyl)-N-[3-(4-methylpiperazin-1-yl)propyl]-2-propenamide dihydrochloride] | – | 24.3 ± 12.7% | 44.1 ± 6.6% | 7.45 ± 1.95* g | 7.43 ± 1.63* g | – | – | – | – | – | – |
| Cl.O=C(/C=C/c1ccccc1F)NCCn1ccnc1 [Compound 21, (E)-3-(2-Fluorophenyl)-N-[2-(imidazol-1-yl)ethyl]-2-propenamide hydrochloride] | – | 44.5 ± 11.7% | 49.7 ± 4.7% | 11.78 ± 1.20* g | – | – | – | 6.04 ± 0.89 g | 8.80 ± 1.42* g | – | – |
| O=C(/C=C/c1ccccc1F)NCCc1c[nH]cn1 [Compound 18, (E)-3-(2-Fluorophenyl)-N-[2-(1H-imidazol-4-yl)ethyl]-2-propenamide] | 152 to 153 °C | 54.3 ± 13.2% | 62.3 ± 14.6% | 10.92 ± 1.33* g | 11.44 ± 1.95* g | – | – | – | – | – | – |
| O=C(/C=C/c1ccccc1F)NCCCN1CCN(C2CCCCC2)CC1 [Compound 7, (E)-N-[3-(4-Cyclohexylpiperazin-1-yl)propyl]-3-(2-fluorophenyl)-2-propenamide] | 84 to 85 °C | 41.5 ± 17.2% | 68.4 ± 8% | 9.05 ± 1.80 g | 12.70 ± 1.16* g | – | – | – | – | – | – |
| O=C(/C=C/c1ccccc1F)NCCN1CCN(C2CCCCC2)CC1 [Compound 6, (E)-N-[2-(4-Cyclohexylpiperazin-1-yl)ethyl]-3-(2-fluorophenyl)-2-propenamide] | 113 to 114 °C | 29.6 ± 12.8% | 70.4 ± 6.1% | 10.87 ± 1.24* g | 14.06 ± 0.61* g | – | – | – | – | – | – |
| O=C(/C=C/c1ccccc1F)NCCc1c[nH]c2ccccc12 [Compound 1, (E)-3-(2-Fluorophenyl)-N-[2-(1H-indol-3-yl)ethyl]-2-propenamide] | – | 46.9 ± 7.6% | 62.7 ± 6% | 6.71 ± 1.33 g | 14.06 ± 0.61* g | – | – | – | – | – | – |
| O=C(/C=C/c1ccc(F)cc1F)NCCn1ccnc1 [Compound 23, (E)-3-(2,4-Difluorophenyl)-N-[2-(imidazol-1-yl)ethyl]-2-propenamide] | 113 to 115 °C | – | – | 8.22 ± 1.43* g | 9.81 ± 1.27* g | – | – | – | – | – | – |
| O=C(/C=C/c1ccc(F)cc1)NCCCN1CCSCC1 [Compound 60, (E)-3-(4-Fluorophenyl)-N-(3-thiomorpholinopropyl)-2-propenamide] | 121 to 122 °C | – | – | – | – | – | – | – | – | 4.03 ± 0.54 g | 8.45 ± 1.01* g |
| O=C(/C=C/c1ccc(F)cc1)Nc1ccc(N2CCOCC2)cc1 [Compound 33, (E)-3-(4-Fluorophenyl)-N-[4-morpholinophenyl]-2-propenamide] | 223 to 224 °C | – | – | – | – | 8.93 ± 1.46* g | 9.35 ± 2.10* g | – | – | – | – |
| O=C(/C=C/c1ccccc1F)NCCN1CCNCC1 [Compound 16, (E)-3-(2-Fluorophenyl)-N-[2-(piperazin-1-yl)ethyl]-2-propenamide dihydrochloride] | – | 42.6 ± 9.1% | 65.5 ± 8.9% | 5.48 ± 0.82 g | 7.48 ± 1.30 g | – | – | – | – | – | – |

More lines, main results first:

| melting point | Compound | inhibition in vivo at 10 mg/kg (ddY-type mice) | inhibition in vivo at 100 mg/kg (ddY-type mice) | 50% Reaction Threshold, Group Administered with Test Substance, After Administration (Chung model rat; [1]) | 50% Reaction Threshold, Group Administered with Test Substance, After Administration (Chung model rat; [2]) | 50% Reaction Threshold, Group Administered with Test Substance, After Administration (Chung model rat; [3]) | 50% Reaction Threshold, Group Administered with Test Substance, After Administration (Chung model rat; [4]) | 50% Reaction Threshold, Group Administered with Test Substance, After Administration (Chung model rat; oral 0.1 mg/kg, measurement point 90 minute (action peak)) | 50% Reaction Threshold, Group Administered with Test Substance, After Administration (Chung model rat; oral 0.3 mg/kg, measurement point 90 minute (action peak)) | 50% Reaction Threshold, Group Administered with Test Substance, After Administration (Chung model rat; [5]) | 50% Reaction Threshold, Group Administered with Test Substance, After Administration (Chung model rat; [6]) |
| --- | --- | --- | --- | --- | --- | --- | --- | --- | --- | --- | --- |
| 93 to 94 °C | Cn1cccc1CCNC(=O)/C=C/c1ccccc1F [Compound 8, (E)-3-(2-Fluorophenyl)-N-[2-(1-methyl-1H-pyrrol-2-yl)ethyl]-2-propenamide] | 8.5 ± 13.9% | 28.1 ± 8.3% | 4.37 ± 0.53 g | 5.57 ± 1.18* g | – | – | – | – | – | – |
| 177 to 178 °C | Cl.NCCCCNC(=O)/C=C/c1ccccc1F [Compound 14, (E)-N-(4-Aminobutyl)-3-(2-fluorophenyl)-2-propenamide hydrochloride] | 46.3 ± 11.1% | 76.8 ± 4.1% | – | – | 12.38 ± 1.15* g | 13.61 ± 0.96* g | – | – | – | – |
| 153 to 154 °C | Cl.O=C(/C=C/c1ccccc1F)NCCCN1CCOCC1 [Compound 11, (E)-3-(2-Fluorophenyl)-N-(3-morpholinopropyl)-2-propenamide hydrochloride] | 23.2 ± 12.8% | 68.9 ± 4.5% | – | – | 11.69 ± 1.80* g | 14.27 ± 0.73* g | – | – | – | – |
| 112 to 113 °C | O=C(/C=C/c1ccccc1F)NCCN1CCOCC1 [Compound 5, (E)-3-(2-Fluorophenyl)-N-(2-morpholinoethyl)-2-propenamide] | 34.8 ± 10.3% | 95.7 ± 3.1% | 4.91 ± 0.73 g | 8.68 ± 1.91* g | – | – | – | – | – | – |
| 95 to 96 °C | O=C(/C=C/c1ccccc1F)NCCc1ccncc1 [Compound 3, (E)-3-(2-Fluorophenyl)-N-[2-(4-pyridyl)ethyl]-2-propenamide] | 44.4 ± 11.1% | 59 ± 8.1% | 6.74 ± 1.04* g | 10.06 ± 1.60* g | – | – | – | – | – | – |
| 84 to 85 °C | O=C(/C=C/c1ccccc1F)NCCN1CCCCC1 [Compound 4, (E)-3-(2-Fluorophenyl)-N-[2-(1-piperidyl)ethyl]-2-propenamide] | 47 ± 7.8% | 49 ± 9.2% | – | – | – | – | – | – | 3.98 ± 0.21 g | 7.35 ± 0.95* g |
| 115 to 116 °C | O=C(/C=C/c1ccccc1F)NCc1cccnc1 [Compound 2, (E)-3-(2-Fluorophenyl)-N-(3-pyridylmethyl)-2-propenamide] | 39.9 ± 10.4% | 39.9 ± 10% | – | – | – | – | – | – | 4.85 ± 0.78 g | 7.76 ± 1.30* g |
| 154 to 156 °C | Cl.N=C(N)NCCCCNC(=O)/C=C/c1ccccc1F [Compound 65, (E)-3-(2-Fluorophenyl)-N-(4-guanidinobutyl)-2-propenamide hydrochloride] | – | – | – | – | 5.01 ± 0.52* g | 5.24 ± 0.47* g | – | – | – | – |

From US9540338B2, “Substituted cinnamic acid amides for treating pain” (NIPPON ZOKI PHARMACEUTICAL CO., LTD., priority 2012, dated 2017)
